Patent US10770169B2, “Method of providing a treatment to a subject based on a dynamic pathway map” (THE REGENTS OF THE UNIVERSITY OF CALIFORNIA, priority 2010, dated 2020)
Read-outs that look alike come from different tables or passages of the source.

How the values were obtained:
[1] = system: panel of 55 breast cancer cell lines; experiment: Cell growth inhibition assay (Cell Titer Glo, 72 h, 9 doses; GI50, TGI, LC50); type: cell-based, human; settings: Homo sapiens, read-out: GI50 (converted)
[2] = system: luminal, basal, claudin-low and ERBB2AMP breast cancer cell lines; experiment: Associations of clinically relevant subtypes and response (non-parametric ANOVA or t-test on GI50 ranks); type: cell-based, human; settings: Table 6; most sensitive subtype, FDR p<0.20
Procedure, shortened: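 Significance was set at FDR p<0.20 after combining p-values across three test sets. Subtype–response associations came from rank-based non-parametric ANOVA or t-tests on GI50. For three-class comparisons, post-hoc tests of each group against the rest identified the most sensitive group, with FDR correction.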

`CCNCCCNC/C=C\CNCCCNCC` [CGC-11047] showed a GI50 ([1]; 600MPE cell line, censored GI50 values) of 468 µM, a GI50 ([1]; AU565, AU565 cell line, censored GI50 values) of 288 µM and a GI50 ([1]; AU565, cell line AU565) of 288 µM. It also gave a GI50 ([1]; BT-474, BT474 cell line, censored GI50 values) of 269 µM, a GI50 ([1]; BT-474, cell line BT474) of 269 µM and a GI50 ([1]; BT-483, BT483 cell line, censored GI50 values) of 589 µM. The GI50 ([1]; BT-483, cell line BT483) was 589 µM, the GI50 ([1]; BT-549, BT549 cell line, censored GI50 values) was 29.5 µM and the GI50 ([1]; BT-549, cell line BT549) was 29.5 µM. The GI50 ([1]; CAMA-1, CAMA1 cell line, censored GI50 values) was 1260 µM, the GI50 ([1]; CAMA-1, cell line CAMA1) was 1260 µM and the GI50 ([1]; HCC38, HCC38 cell line, censored GI50 values) was 11.7 µM. For the same compound, the GI50 ([1]; HCC38, cell line HCC38) was 11.7 µM, the GI50 ([1]; HCC70, HCC70 cell line, censored GI50 values) was 2.09 µM and the GI50 ([1]; HCC70, cell line HCC70) was 2.09 µM. For the same compound, the GI50 ([1]; HCC202, HCC202 cell line, censored GI50 values) was 14.5 µM, the GI50 ([1]; HCC202, cell line HCC202) was 14.5 µM and the GI50 ([1]; HCC1143, HCC1143 cell line, censored GI50 values) was 112 µM. The GI50 ([1]; HCC1143, cell line HCC1143) was 112 µM, the GI50 ([1]; HCC1187, HCC1187 cell line, censored GI50 values) was 1550 µM and the GI50 ([1]; HCC1187, cell line HCC1187) was 1550 µM. The GI50 ([1]; HCC1395, HCC1395 cell line, censored GI50 values) was 87.1 µM, the GI50 ([1]; HCC1395, cell line HCC1395) was 87.1 µM and the GI50 ([1]; HCC1419, HCC1419 cell line, censored GI50 values) was 14.1 µM. It also gave a GI50 ([1]; HCC1419, cell line HCC1419) of 14.1 µM, a GI50 ([1]; HCC1428, HCC1428 cell line, censored GI50 values) of 204 µM and a GI50 ([1]; HCC1428, cell line HCC1428) of 204 µM. The GI50 ([1]; HCC1500, HCC1500 cell line, censored GI50 values) was 63.1 µM, the GI50 ([1]; HCC1500, cell line HCC1500) was 63.1 µM and the GI50 ([1]; HCC1806, HCC1806 cell line, censored GI50 values) was 74.1 µM. For the same compound, the GI50 ([1]; HCC1806, cell line HCC1806) was 74.1 µM, the GI50 ([1]; HCC1937, HCC1937 cell line, censored GI50 values) was 6.92 µM and the GI50 ([1]; HCC1937, cell line HCC1937) was 6.92 µM. The GI50 ([1]; HCC1954, HCC1954 cell line, censored GI50 values) was 0.692 µM, the GI50 ([1]; HCC1954, cell line HCC1954) was 0.692 µM and the GI50 ([1]; HCC2185 cell line, censored GI50 values) was 407 µM. It also gave a GI50 ([1]; HCC3153 cell line, censored GI50 values) of 5.75 µM, a GI50 ([1]; LY2 cell line, censored GI50 values) of 1510 µM and a GI50 ([1]; MCF7, MCF7 cell line, censored GI50 values) of 85.1 µM. It also gave a GI50 ([1]; MCF7, cell line MCF7) of 85.1 µM, a GI50 ([1]; MDA-MB-134-VI, MDAMB134VI cell line, censored GI50 values) of 1070 µM and a GI50 ([1]; MDA-MB-157, MDAMB157 cell line, censored GI50 values) of 1020 µM. For the same compound, the GI50 ([1]; MDA-MB-157, cell line MDAMB157) was 1020 µM, the GI50 ([1]; MDA-MB-175-VII, MDAMB175VII cell line, censored GI50 values) was 617 µM and the GI50 ([1]; MDA-MB-231, MDAMB231 cell line, censored GI50 values) was 2510 µM. The GI50 ([1]; MDA-MB-231, cell line MDAMB231) was 2510 µM, the GI50 ([1]; MDA-MB-361, MDAMB361 cell line, censored GI50 values) was 708 µM and the GI50 ([1]; MDA-MB-361, cell line MDAMB361) was 708 µM. The GI50 ([1]; MDA-MB-415, MDAMB415 cell line, censored GI50 values) was 75.9 µM, the GI50 ([1]; MDA-MB-415, cell line MDAMB415) was 75.9 µM and the GI50 ([1]; MDA-MB-436, MDAMB436 cell line, censored GI50 values) was 380 µM. For the same compound, the GI50 ([1]; MDA-MB-436, cell line MDAMB436) was 380 µM, the GI50 ([1]; MDA-MB-453, MDAMB453 cell line, censored GI50 values) was 501 µM and the GI50 ([1]; MDA-MB-453, cell line MDAMB453) was 501 µM. The GI50 ([1]; MDA-MB-468, MDAMB468 cell line, censored GI50 values) was 0.891 µM, the GI50 ([1]; MDA-MB-468, cell line MDAMB468) was 0.891 µM and the GI50 ([1]; SK-BR-3, cell line SKBR3) was 5010 µM. The GI50 ([1]; SUM52PE, cell line SUM52PE) was 3.55 µM, the GI50 ([1]; SUM149PT, SUM149PT cell line, censored GI50 values) was 28.8 µM and the GI50 ([1]; SUM149PT, cell line SUM149PT) was 28.8 µM. It also gave a GI50 ([1]; SUM185PE, cell line SUM185PE) of 501 µM, a GI50 ([1]; SUM1315MO2, SUM1315MO2 cell line, censored GI50 values) of 708 µM and a GI50 ([1]; SUM-159-PT, SUM159PT cell line, censored GI50 values) of 107 µM. For the same compound, the GI50 ([1]; SUM-159-PT, cell line SUM159PT) was 107 µM, the GI50 ([1]; T47D, cell line T47D) was 9.33 µM and the GI50 ([1]; UACC-812, cell line UACC812) was 339 µM. The GI50 ([1]; UACC-893, cell line UACC893) was 2090 µM, the GI50 ([1]; ZR-75-1, cell line ZR751) was 501 µM and the GI50 ([1]; ZR-75-30, cell line ZR7530) was 5010 µM. It also gave a GI50 ([1]; ZR-75B, cell line ZR75B) of 562 µM, a GI50 ([1]; cell line 600MPE) of 468 µM and a GI50 ([1]; cell line HCC2185) of 407 µM. For the same compound, the GI50 ([1]; cell line HCC3153) was 5.75 µM, the GI50 ([1]; cell line LY2) was 1510 µM and the GI50 ([1]; cell line MDAMB134V) was 1070 µM. For the same compound, the GI50 ([1]; cell line MDAMB175V) was 617 µM, the GI50 ([1]; cell line SUM1315MO) was 708 µM and the Subtype specificity [2] was “Basal”.
